Assay results from patent US8492540B2, “1,2,4,-triazin-3,5-dione compounds suitable for treating disorders that respond to modulation of the dopamine D3 receptor” (Abbott GmbH & Co. KG, priority 2007, dated 2013).

What was measured:
[1] = target: T1, human dopamine D3 receptors (Homo sapiens, UniProt P35462); experiment: Dopamine D3 receptor binding, [125I]-iodosulpride displacement; details: membranes of HEK-293 cells, 0.1 nM [125I]-iodosulpride
T1 construct: expressed in transfected cells; membranes)
Description: (§1) Each as-say mixture was run in triplicate. • The incubation buffer contained 50 mM tris, 120 mM NaCl, 5 mM KCl, 2 mM CaCl2, 2 mM MgCl2 and 0.1% bovine serum albumin, 10 μM quinolone and 0.1% ascorbic acid (prepared fresh daily). […] Each assay mixture was run in triplicate. • The incubation buffer contained 50 mM tris, 120 mM NaCl, 5 mM KCl, 2 mM CaCl2, 2 mM MgCl2 and 0.1% bovine serum albumin. The buffer was adjusted to pH 7.4 with HCl. c) Measurement and Analysis: • After having been incubated at 25° C. for 60 minutes, the assay mixtures were filtered through a Whatman GF/B glass fiber filter under vacuum using a cell collecting device. The filters were transferred to scintillation viols using a filter transfer system. After 4 ml of Ultima Gold® (Packard) have been added, the samples were shaken for one hour and the radioactivity was then counted in a Beta-Counter (Packard, Tricarb 2000 or 2200CA).

[2] = target: T2, human dopamine D2L receptors (long isoform) (Homo sapiens, UniProt P14416); experiment: Dopamine D2L receptor binding, [125I] iodospiperone displacement; details: ratio of Ki at human D2L to Ki at human D3, HEK-293 membranes
T2 construct: expressed in transfected cells; membranes)
Description: as §1

T1 sequence (P35462 whole entry): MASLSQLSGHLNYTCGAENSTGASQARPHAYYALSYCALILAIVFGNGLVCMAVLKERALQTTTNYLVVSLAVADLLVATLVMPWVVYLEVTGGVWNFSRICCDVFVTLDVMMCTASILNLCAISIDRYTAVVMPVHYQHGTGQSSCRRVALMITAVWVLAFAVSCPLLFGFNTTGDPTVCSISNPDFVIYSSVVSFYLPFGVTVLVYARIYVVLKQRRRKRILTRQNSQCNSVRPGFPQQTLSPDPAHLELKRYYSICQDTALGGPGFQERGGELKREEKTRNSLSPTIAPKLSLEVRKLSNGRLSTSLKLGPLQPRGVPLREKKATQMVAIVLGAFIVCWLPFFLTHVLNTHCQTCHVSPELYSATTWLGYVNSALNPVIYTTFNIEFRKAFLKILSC
T2 sequence (P14416 whole entry, canonical isoform): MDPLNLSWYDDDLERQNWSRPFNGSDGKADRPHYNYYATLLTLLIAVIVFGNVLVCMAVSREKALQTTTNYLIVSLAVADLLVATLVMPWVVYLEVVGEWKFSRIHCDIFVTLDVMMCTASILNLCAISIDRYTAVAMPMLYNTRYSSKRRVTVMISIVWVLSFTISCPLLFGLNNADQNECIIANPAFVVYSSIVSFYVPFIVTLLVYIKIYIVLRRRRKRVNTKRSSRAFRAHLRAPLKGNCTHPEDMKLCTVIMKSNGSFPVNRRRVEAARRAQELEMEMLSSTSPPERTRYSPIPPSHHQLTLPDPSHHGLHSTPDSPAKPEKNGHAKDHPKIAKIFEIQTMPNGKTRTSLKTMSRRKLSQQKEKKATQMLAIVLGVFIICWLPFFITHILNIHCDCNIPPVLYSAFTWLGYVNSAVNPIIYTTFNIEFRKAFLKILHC

Row | Compound | Ki [1] | Selectivity vs. D2L, Ki(D2L)/Ki(D3) [2]
1 | CCCc1cc(N2CCN(CCCCn3ncc(=O)[nH]c3=O)CC2)nc(C(C)(C)C)n1 [Example 3, 2-{4-[4-(2-tert-Butyl-6-propyl-pyrimidin-4-yl)-piperazin-1-yl]butyl}-2H-[1,2,4]triazine-3,5-dione] | < 10 nM | +++ (+++>50)
2 | CC(C)(C)c1nc(C(F)F)cc(N2CCN(CCCCn3ncc(=O)[nH]c3=O)CC2)n1.Cl [Example 2, 2-{4-[4-(2-tert-Butyl-6-difluoromethyl-pyrimidin-4-yl)-piperazin-1-yl]butyl}-2H-[1,2,4]triazine-3,5-dione hydrochloride] | < 10 nM | ++ (++>20)
3 | CC(C)(C)c1nc(N2CCN(CCCCn3ncc(=O)[nH]c3=O)CC2)cc(C(F)(F)F)n1.Cl [Example 1, 2-{4-[4-(2-tert-Butyl-6-trifluoromethyl-pyrimidin-4-yl)-piperazin-1-yl]butyl}-2H-[1,2,4]triazine-3,5-dione hydrochloride] | < 10 nM | ++ (++>20)

Continued, values first:

Row | Ki [1] | Selectivity vs. D2L, Ki(D2L)/Ki(D3) [2] | Compound
4 | < 10 nM | ++ (++>20) | CC(C)(C)c1cc(N2CCN(CCCCn3ncc(=O)[nH]c3=O)CC2)nc(C(C)(C)C)n1.O=C(O)C(F)(F)F [Example 4, 2-{4-[4-(2,6-Di-tert-butyl-pyrimidin-4-yl)-piperazin-1-yl]butyl}-2H-[1,2,4]triazine-3,5-dione trifluoroacetate]
5 | < 10 nM | ++ (++>20) | CCCc1cc(N2CCN(CCCCn3nc(C)c(=O)[nH]c3=O)CC2)nc(C(C)(C)C)n1.Cl [Example 7, 2-{4-[4-(2-tert-Butyl-6-propyl-pyrimidin-4-yl)-piperazin-1-yl]butyl}-6-methyl-2H-[1,2,4]triazine-3,5-dione hydrochloride]
6 | < 10 nM | ++ (++>20) | Cc1nn(CCCCN2CCN(c3cc(C(F)(F)F)nc(C(C)(C)C)n3)CC2)c(=O)[nH]c1=O.Cl [Example 6, 2-{4-[4-(2-tert-Butyl-6-trifluoromethyl-pyrimidin-4-yl)-piperazin-1-yl]butyl}-6-methyl-2H-[1,2,4]triazine-3,5-dione hydrochloride]
7 | < 10 nM | ++ (++>20) | CC(C)(C)c1nc(C2CCC2)cc(N2CCN(CCCCn3ncc(=O)[nH]c3=O)CC2)n1 [Example 5, 2-{4-[4-(2-tert-Butyl-6-cyclobutyl-pyrimidin-4-yl)-piperazin-1-yl]butyl}-2H-[1,2,4]triazine-3,5-dione]
